Tests used:
[1] = system: weed plants such as Sinapis alba, Chrysanthemum segetum, Avena sativa, Stellaria media, Echinochloa crus-galli, Lolium multiflorum, Setaria viridis, Abutilon …; assay: Pre-emergence effect on weeds (greenhouse pot test, visual scoring); type: in vivo; settings: applied pre-emergence at a rate of 0.3 kg or less of active substance per hectare; scored after 3 to 4 weeks in comparison to untreated controls
[2] = system: weed plants such as Sinapis alba, Echinochloa crus-galli, Lolium multiflorum, Chrysanthemum segetum, Setaria viridis, Abutilon theophrasti, Amaranthus …; assay: Post-emergence effect on weeds (greenhouse pot test, visual scoring); type: in vivo; settings: applied post-emergence (three-leaf stage) at a rate of 0.3 kg or less of active substance per hectare; scored after about 3 to 4 weeks in comparison to untreated controls

SMILES	herbicidal action against weed plants (visual scoring of plant damage or emergence damage) [1]	herbicidal action against weed plants (effect scored visually) [2]
CCOc1nn(C(=O)NS(=O)(=O)c2c(I)cccc2OC(F)(F)F)c(=O)n1C [Compound 1.443]	very good herbidical action	very good herbicidal action
CCCOc1nn(C(=O)NS(=O)(=O)c2c(I)cccc2OC(F)(F)F)c(=O)n1C [Compound 1.444]	very good herbidical action	very good herbicidal action
COc1nn(C(=O)NS(=O)(=O)c2c(I)cccc2OC(F)(F)F)c(=O)n1C1CC1 [Compound 1.447]	very good herbidical action	very good herbicidal action
CCOc1nn(C(=O)NS(=O)(=O)c2c(I)cccc2OC(F)(F)F)c(=O)n1C1CC1 [Compound 1.450]	very good herbidical action	very good herbicidal action
CCCOc1nn(C(=O)NS(=O)(=O)c2c(I)cccc2OC(F)(F)F)c(=O)n1C1CC1 [Compound 1.453]	very good herbidical action	very good herbicidal action
COc1nn(C(=O)NS(=O)(=O)c2c(I)cccc2OC(F)F)c(=O)n1C [Compound 1.460]	very good herbidical action	very good herbicidal action
CCOc1nn(C(=O)NS(=O)(=O)c2c(I)cccc2OC(F)F)c(=O)n1C [Compound 1.463]	very good herbidical action	very good herbicidal action
CCCOc1nn(C(=O)NS(=O)(=O)c2c(I)cccc2OC(F)F)c(=O)n1C [Compound 1.464]	very good herbidical action	very good herbicidal action
CC(C)Oc1nn(C(=O)NS(=O)(=O)c2c(I)cccc2OC(F)F)c(=O)n1C [Compound 1.465]	very good herbidical action	very good herbicidal action
COc1nn(C(=O)NS(=O)(=O)c2c(I)cccc2OC(F)F)c(=O)n1C1CC1 [Compound 1.467]	very good herbidical action	very good herbicidal action
CCOc1nn(C(=O)NS(=O)(=O)c2c(I)cccc2OC(F)F)c(=O)n1C1CC1 [Compound 1.470]	very good herbidical action	very good herbicidal action
CCCOc1nn(C(=O)NS(=O)(=O)c2c(I)cccc2OC(F)F)c(=O)n1C1CC1 [Compound 1.473]	very good herbidical action	very good herbicidal action
COc1nn(C(=O)NS(=O)(=O)c2c(I)cccc2OCC(F)(F)F)c(=O)n1C [Compound 1.481]	very good herbidical action	very good herbicidal action
COc1nn(C(=O)NS(=O)(=O)c2c(I)cccc2OCC(F)(F)F)c(=O)n1C1CC1 [Compound 1.488]	very good herbidical action	very good herbicidal action
COc1nn(C(=O)NS(=O)(=O)c2c(I)cccc2OCC(F)F)c(=O)n1C [Compound 1.501]	very good herbidical action	very good herbicidal action
CCOc1nn(C(=O)NS(=O)(=O)c2c(I)cccc2OCC(F)F)c(=O)n1C [Compound 1.504]	very good herbidical action	very good herbicidal action
CCCOc1nn(C(=O)NS(=O)(=O)c2c(I)cccc2OCC(F)F)c(=O)n1C [Compound 1.505]	very good herbidical action	very good herbicidal action

SMILES	herbicidal action against weed plants (visual scoring of plant damage or emergence damage) [1]	herbicidal action against weed plants (effect scored visually) [2]
CC(C)Oc1nn(C(=O)NS(=O)(=O)c2c(I)cccc2OCC(F)F)c(=O)n1C [Compound 1.506]	very good herbidical action	very good herbicidal action
COc1nn(C(=O)NS(=O)(=O)c2c(I)cccc2OCC(F)F)c(=O)n1C1CC1 [Compound 1.508]	very good herbidical action	very good herbicidal action
CCOc1nn(C(=O)NS(=O)(=O)c2c(I)cccc2OCC(F)F)c(=O)n1C1CC1 [Compound 1.511]	very good herbidical action	very good herbicidal action
CCCOc1nn(C(=O)NS(=O)(=O)c2c(I)cccc2OCC(F)F)c(=O)n1C1CC1 [Compound 1.514]	very good herbidical action	very good herbicidal action
COc1nn(C(=O)NS(=O)(=O)c2c(I)cccc2OC(C)C(F)(F)F)c(=O)n1C (centres unmarked) [Compound 1.522]	very good herbidical action	very good herbicidal action
CCOc1nn(C(=O)NS(=O)(=O)c2c(I)cccc2OC(C)C(F)(F)F)c(=O)n1C (centres unmarked) [Compound 1.525]	very good herbidical action	very good herbicidal action
CCCOc1nn(C(=O)NS(=O)(=O)c2c(I)cccc2OC(C)C(F)(F)F)c(=O)n1C (centres unmarked) [Compound 1.526]	very good herbidical action	very good herbicidal action
CC(C)Oc1nn(C(=O)NS(=O)(=O)c2c(I)cccc2OC(C)C(F)(F)F)c(=O)n1C (centres unmarked) [Compound 1.527]	very good herbidical action	very good herbicidal action
COc1nn(C(=O)NS(=O)(=O)c2c(I)cccc2OC(C)C(F)(F)F)c(=O)n1C1CC1 (centres unmarked) [Compound 1.529]	very good herbidical action	very good herbicidal action
CCOc1nn(C(=O)NS(=O)(=O)c2c(I)cccc2OC(C)C(F)(F)F)c(=O)n1C1CC1 (centres unmarked) [Compound 1.532]	very good herbidical action	very good herbicidal action
CCCOc1nn(C(=O)NS(=O)(=O)c2c(I)cccc2OC(C)C(F)(F)F)c(=O)n1C1CC1 (centres unmarked) [Compound 1.535]	very good herbidical action	very good herbicidal action
COc1nn(C(=O)NS(=O)(=O)c2c(I)cccc2OCC(F)(F)C(F)(F)F)c(=O)n1C [Compound 1.544]	very good herbidical action	very good herbicidal action
CCCOc1nn(C(=O)NS(=O)(=O)c2c(I)cccc2OCC(F)(F)C(F)(F)F)c(=O)n1C [Compound 1.549]	very good herbidical action	very good herbicidal action
CC(C)Oc1nn(C(=O)NS(=O)(=O)c2c(I)cccc2OCC(F)(F)C(F)(F)F)c(=O)n1C [Compound 1.550]	very good herbidical action	very good herbicidal action
COc1nn(C(=O)NS(=O)(=O)c2c(I)cccc2OCC(F)(F)C(F)(F)F)c(=O)n1C1CC1 [Compound 1.552]	very good herbidical action	very good herbicidal action
CCOc1nn(C(=O)NS(=O)(=O)c2c(I)cccc2OCC(F)(F)C(F)(F)F)c(=O)n1C1CC1 [Compound 1.555]	very good herbidical action	very good herbicidal action
CCCOc1nn(C(=O)NS(=O)(=O)c2c(I)cccc2OCC(F)(F)C(F)(F)F)c(=O)n1C1CC1 [Compound 1.558]	very good herbidical action	very good herbicidal action

Source: US7855166B2, “Sulfonylamino(thio)carbonyl compounds” (Bayer Cropscience GmbH, priority 2005, dated 2010)
